{"source": "patent US9061984B2", "about": "(University of Louisville Research Foundation, Inc., priority 2008, dated 2015)", "test_system": "several cell lines (Panel/Cell Line)", "test": "GI50, TGI and LC50 of compound II-21 for several cell lines (Table 12)", "conditions": "48-h exposure; for CC50 / GI50: Homo sapiens", "note": "Where two headings read alike, the source gives them in different places."}
{"smiles": "C(=N/Nc1ncnc2sc3c(c12)CCCC3)/c1ccccn1", "note": "[II-21]", "values": [{"measurement": "CC50", "setting": "NCI-H460, 48 h, read-out: LC50 (M), Non-Small Cell Lung Cancer, NCI-H460", "value": "3.11e-05", "unit": "M"}, {"measurement": "GI50", "setting": "NCI-H522, 48 h, Non-Small Cell Lung Cancer, NCI-H522", "value": 0.419, "unit": "µM"}, {"measurement": "CC50", "setting": "NCI-H522, 48 h, read-out: LC50 (M), Non-Small Cell Lung Cancer, NCI-H522", "value": "> 0.0001", "unit": "M"}, {"measurement": "GI50", "setting": "NCI/ADR-RES, 48 h, Ovarian Cancer", "value": 0.427, "unit": "µM"}, {"measurement": "CC50", "setting": "NCI/ADR-RES, 48 h, read-out: LC50 (M), Ovarian Cancer, NCI/ADR-RES", "value": "> 0.0001", "unit": "M"}, {"measurement": "GI50", "setting": "OVCAR-3, 48 h, Ovarian Cancer, OVCAR-3", "value": 0.109, "unit": "µM"}, {"measurement": "CC50", "setting": "OVCAR-3, 48 h, read-out: LC50 (M), Ovarian Cancer, OVCAR-3", "value": "4.39e-05", "unit": "M"}, {"measurement": "GI50", "setting": "OVCAR-4, 48 h, Ovarian Cancer, OVCAR-4", "value": 0.431, "unit": "µM"}, {"measurement": "CC50", "setting": "OVCAR-4, 48 h, read-out: LC50 (M), Ovarian Cancer, OVCAR-4", "value": "> 0.0001", "unit": "M"}, {"measurement": "GI50", "setting": "OVCAR-5, 48 h, Ovarian Cancer, OVCAR-5", "value": 0.823, "unit": "µM"}, {"measurement": "CC50", "setting": "OVCAR-5, 48 h, read-out: LC50 (M), Ovarian Cancer, OVCAR-5", "value": "> 0.0001", "unit": "M"}, {"measurement": "GI50", "setting": "OVCAR-8, 48 h, Ovarian Cancer, OVCAR-8", "value": 0.481, "unit": "µM"}, {"measurement": "CC50", "setting": "OVCAR-8, 48 h, read-out: LC50 (M), Ovarian Cancer, OVCAR-8", "value": "> 0.0001", "unit": "M"}, {"measurement": "GI50", "setting": "RPMI-8226, 48 h, Leukemia, RPMI-8226", "value": 0.35, "unit": "µM"}, {"measurement": "CC50", "setting": "RPMI-8226, 48 h, read-out: LC50 (M), Leukemia, RPMI-8226", "value": "> 0.0001", "unit": "M"}, {"measurement": "GI50", "setting": "RXF 393, 48 h, Renal Cancer, RXF 393", "value": 0.423, "unit": "µM"}, {"measurement": "CC50", "setting": "RXF 393, 48 h, read-out: LC50 (M), Renal Cancer, RXF 393", "value": "4.53e-05", "unit": "M"}, {"measurement": "GI50", "setting": "SF-268, 48 h, CNS Cancer, SF-268", "value": 0.356, "unit": "µM"}, {"measurement": "CC50", "setting": "SF-268, 48 h, read-out: LC50 (M), CNS Cancer, SF-268", "value": "8.3e-05", "unit": "M"}, {"measurement": "GI50", "setting": "SF-295, 48 h, CNS Cancer, SF-295", "value": 0.313, "unit": "µM"}, {"measurement": "CC50", "setting": "SF-295, 48 h, read-out: LC50 (M), CNS Cancer, SF-295", "value": "> 0.0001", "unit": "M"}, {"measurement": "GI50", "setting": "SF-539, 48 h, CNS Cancer, SF-539", "value": 0.391, "unit": "µM"}, {"measurement": "CC50", "setting": "SF-539, 48 h, read-out: LC50 (M), CNS Cancer, SF-539", "value": "2.92e-05", "unit": "M"}, {"measurement": "GI50", "setting": "SK-MEL-2, 48 h, Melanoma, SK-MEL-2", "value": 7.51, "unit": "µM"}, {"measurement": "CC50", "setting": "SK-MEL-2, 48 h, read-out: LC50 (M), Melanoma, SK-MEL-2", "value": "6.78e-05", "unit": "M"}, {"measurement": "GI50", "setting": "SK-MEL-5, 48 h, Melanoma, SK-MEL-5", "value": 0.332, "unit": "µM"}, {"measurement": "CC50", "setting": "SK-MEL-5, 48 h, read-out: LC50 (M), Melanoma, SK-MEL-5", "value": "2.36e-05", "unit": "M"}, {"measurement": "GI50", "setting": "SK-MEL-28, 48 h, Melanoma, SK-MEL-28", "value": 0.422, "unit": "µM"}, {"measurement": "CC50", "setting": "SK-MEL-28, 48 h, read-out: LC50 (M), Melanoma, SK-MEL-28", "value": "5.46e-05", "unit": "M"}, {"measurement": "GI50", "setting": "SK-OV-3, 48 h, Ovarian Cancer, SK-OV-3", "value": 0.41, "unit": "µM"}, {"measurement": "CC50", "setting": "SK-OV-3, 48 h, read-out: LC50 (M), Ovarian Cancer, SK-OV-3", "value": "> 0.0001", "unit": "M"}, {"measurement": "GI50", "setting": "SN12C, 48 h, Renal Cancer", "value": 0.426, "unit": "µM"}, {"measurement": "CC50", "setting": "SN12C, 48 h, read-out: LC50 (M), Renal Cancer, SN12C", "value": "8.1e-05", "unit": "M"}, {"measurement": "GI50", "setting": "SNB-19, 48 h, CNS Cancer, SNB-19", "value": 0.767, "unit": "µM"}, {"measurement": "CC50", "setting": "SNB-19, 48 h, read-out: LC50 (M), CNS Cancer, SNB-19", "value": "> 0.0001", "unit": "M"}, {"measurement": "GI50", "setting": "SNB-75, 48 h, CNS Cancer, SNB-75", "value": 0.585, "unit": "µM"}, {"measurement": "CC50", "setting": "SNB-75, 48 h, read-out: LC50 (M), CNS Cancer, SNB-75", "value": "4.93e-05", "unit": "M"}, {"measurement": "GI50", "setting": "SW-620, 48 h, Colon Cancer, SW-620", "value": 0.561, "unit": "µM"}, {"measurement": "CC50", "setting": "SW-620, 48 h, read-out: LC50 (M), Colon Cancer, SW-620", "value": "5.95e-05", "unit": "M"}, {"measurement": "GI50", "setting": "T47D, 48 h, Breast Cancer, T-47D", "value": 0.0764, "unit": "µM"}, {"measurement": "CC50", "setting": "T47D, 48 h, read-out: LC50 (M), Breast Cancer, T-47D", "value": "> 0.0001", "unit": "M"}, {"measurement": "GI50", "setting": "TK-10, 48 h, Renal Cancer, TK-10", "value": 0.486, "unit": "µM"}, {"measurement": "CC50", "setting": "TK-10, 48 h, read-out: LC50 (M), Renal Cancer, TK-10", "value": "> 0.0001", "unit": "M"}, {"measurement": "GI50", "setting": "U-251, 48 h, CNS Cancer, U251", "value": 0.369, "unit": "µM"}, {"measurement": "CC50", "setting": "U-251, 48 h, read-out: LC50 (M), CNS Cancer, U251", "value": "3.48e-05", "unit": "M"}, {"measurement": "GI50", "setting": "UACC-62, 48 h, Melanoma, UACC-62", "value": 0.379, "unit": "µM"}, {"measurement": "CC50", "setting": "UACC-62, 48 h, read-out: LC50 (M), Melanoma, UACC-62", "value": "4.84e-05", "unit": "M"}, {"measurement": "GI50", "setting": "UACC-257, 48 h, Melanoma, UACC-257", "value": 0.355, "unit": "µM"}, {"measurement": "CC50", "setting": "UACC-257, 48 h, read-out: LC50 (M), Melanoma, UACC-257", "value": "4.17e-05", "unit": "M"}, {"measurement": "GI50", "setting": "UO-31, 48 h, Renal Cancer, UO-31", "value": 0.286, "unit": "µM"}, {"measurement": "CC50", "setting": "UO-31, 48 h, read-out: LC50 (M), Renal Cancer, UO-31", "value": "6.3e-05", "unit": "M"}, {"measurement": "TGI", "setting": "Leukemia, CCRF-CEM", "value": 0.769, "unit": "µM"}, {"measurement": "TGI", "setting": "Leukemia, HL-60(TB)", "value": 0.407, "unit": "µM"}, {"measurement": "TGI", "setting": "Leukemia, K-562", "value": 10.8, "unit": "µM"}, {"measurement": "TGI", "setting": "Leukemia, MOLT-4", "value": 0.774, "unit": "µM"}, {"measurement": "TGI", "setting": "Leukemia, RPMI-8226", "value": 12.5, "unit": "µM"}, {"measurement": "TGI", "setting": "Leukemia, SR", "value": 0.953, "unit": "µM"}, {"measurement": "TGI", "setting": "Melanoma, M14", "value": 0.599, "unit": "µM"}, {"measurement": "TGI", "setting": "Melanoma, MALME-3M", "value": 10.3, "unit": "µM"}, {"measurement": "TGI", "setting": "Melanoma, MDA-MB-435", "value": 25.1, "unit": "µM"}, {"measurement": "TGI", "setting": "Melanoma, SK-MEL-2", "value": 25.5, "unit": "µM"}, {"measurement": "TGI", "setting": "Melanoma, SK-MEL-5", "value": 1.72, "unit": "µM"}, {"measurement": "TGI", "setting": "Melanoma, SK-MEL-28", "value": 16.7, "unit": "µM"}, {"measurement": "TGI", "setting": "Melanoma, UACC-62", "value": 6.54, "unit": "µM"}, {"measurement": "TGI", "setting": "Non-Small Cell Lung Cancer, A549/ATCC", "value": 14.9, "unit": "µM"}, {"measurement": "TGI", "setting": "Non-Small Cell Lung Cancer, EKVX", "value": 20.5, "unit": "µM"}, {"measurement": "TGI", "setting": "Non-Small Cell Lung Cancer, HOP-62", "value": 17.7, "unit": "µM"}, {"measurement": "TGI", "setting": "Non-Small Cell Lung Cancer, HOP-92", "value": 31, "unit": "µM"}, {"measurement": "TGI", "setting": "Non-Small Cell Lung Cancer, NCI-H23", "value": 34.3, "unit": "µM"}, {"measurement": "TGI", "setting": "Non-Small Cell Lung Cancer, NCI-H226", "value": 16.2, "unit": "µM"}, {"measurement": "TGI", "setting": "Non-Small Cell Lung Cancer, NCI-H322M", "value": 35, "unit": "µM"}, {"measurement": "TGI", "setting": "Non-Small Cell Lung Cancer, NCI-H460", "value": 1.73, "unit": "µM"}, {"measurement": "TGI", "setting": "Non-Small Cell Lung Cancer, NCI-H522", "value": 23.2, "unit": "µM"}, {"measurement": "TGI", "setting": "Ovarian Cancer, IGROV1", "value": 28.9, "unit": "µM"}, {"measurement": "TGI", "setting": "Ovarian Cancer, NCI/ADR-RES", "value": 58.1, "unit": "µM"}, {"measurement": "TGI", "setting": "Ovarian Cancer, OVCAR-3", "value": 14.5, "unit": "µM"}, {"measurement": "TGI", "setting": "Ovarian Cancer, OVCAR-4", "value": 26.3, "unit": "µM"}, {"measurement": "TGI", "setting": "Ovarian Cancer, OVCAR-5", "value": 31.4, "unit": "µM"}, {"measurement": "TGI", "setting": "Ovarian Cancer, OVCAR-8", "value": ">100", "unit": "µM"}, {"measurement": "TGI", "setting": "Ovarian Cancer, SK-OV-3", "value": 29.2, "unit": "µM"}, {"measurement": "TGI", "setting": "Prostate Cancer, DU-145", "value": 15.1, "unit": "µM"}, {"measurement": "TGI", "setting": "Prostate Cancer, PC-3", "value": 71.1, "unit": "µM"}, {"measurement": "TGI", "setting": "Renal Cancer, 786-0", "value": 0.947, "unit": "µM"}, {"measurement": "TGI", "setting": "Renal Cancer, A498", "value": 8.81, "unit": "µM"}, {"measurement": "TGI", "setting": "Renal Cancer, ACHN", "value": 11, "unit": "µM"}, {"measurement": "TGI", "setting": "Renal Cancer, CAKI-1", "value": 14.8, "unit": "µM"}, {"measurement": "TGI", "setting": "Renal Cancer, RXF 393", "value": 10.6, "unit": "µM"}, {"measurement": "TGI", "setting": "Renal Cancer, SN12C", "value": 15.3, "unit": "µM"}, {"measurement": "TGI", "setting": "Renal Cancer, TK-10", "value": 56.6, "unit": "µM"}, {"measurement": "TGI", "setting": "Renal Cancer, UO-31", "value": 1.65, "unit": "µM"}]}
